Key:
Jurkat cells = assay: Apoptosis of Jurkat cells, annexin V staining and flow cytometry; type: cell-based, human
Experimental: (§1) FIG. 2 LAQ824 induces accumulation in the G1 phase of the cell cycle and apoptosis. SKW 6.4 (A) and Jurkat (B) cells were treated with the indicated concentration of LAQ824 for 24 hours. Following this, the cell cycle status and the percentage of apoptotic cells were determined by flow cytometry. Values represent mean±SE of 3 experiments. FIG. 8 Treatment LAQ824 enhances Apo-2L/TRAIL induced DISC assembly, DISC activity and apoptosis. A. SKW 6.4 and B. Jurkat cells were treated with LAQ824 and/or Apo-2L/TRAIL at the indicated doses for 24 hours. Following this, the percentage of apoptotic cells was determined by annexin-V staining followed by flow cytometry. Values represent mean±SE of 3 experiments. C. Following treatment of Jurkat cells with LAQ824 (20 nM) and/or Apo-2L/TRAIL (10 ng/ml) for 24 hours, either the total cell lysates were utilized for immunoblot analyses of caspase-8, BID, caspase-3 and PARP, or the cytosolic (S100) fractions of cells were either used for immunoblot analysis of cytochrome (cyt) c, Omi or Smac (D), β-Actin expression was used as the loading control. E. SKW 6.4 cells were treated with 100 nM LAQ824 for 24 hours or 100 ng/ml Apo-2L/TRAIL for 2 hours, or LAQ824 followed by Apo-2L/TRAIL. […]

SKW 6.4 cells = assay: Apoptosis of SKW 6.4 cells, annexin V staining and flow cytometry; type: cell-based, human; settings: 10 to 200 nM LAQ824, 24 hours, less than in Jurkat
Experimental: as §1

DR4 mRNA = assay: Multi-probe RNase protection assay, DR4 mRNA; type: cell-based, human; settings: only in SKW 6.4 cells, 100 nM LAQ824, 8 or 16 hours
Experimental: (§2) FIG. 6 Treatment with LAQ824 increases the mRNA expression of DR4 and DR5, and increases the association of the DR5 gene with the acetylated histone H3 and H4 in chromatin. A. After exposure of SKW 6.4 and Jurkat cells to 100 nM LAQ824 for the indicated time intervals (hours), mRNA expression levels of the indicated genes were determined using a Riboquant Multi-Probe RNase Protection Assay. B. Soluble chromatin was immunoprecipitated with anti-acetylated histone H3 and H4 antibodies. PCR primers for the DR5 promoter were used to amplify the DNA isolated from the immunoprecipitates. PCR products were scanned and quantified. […] The ratio between input DNA and precipitated DNA was calculated for each treatment.
(§3) A RiboQuant Multi-Probe RNase Protection Assay System was used according to the manufacturer's instructions (BD/PharMingen, San Diego, Calif.), and as previously described. […] The remaining probes were resolved on 5% denaturing polyacrylamide gel and analyzed by autoradiography.
(§4) Next, the effect of LAQ824 on the mRNA levels of c-FLIPL, DR5, DR4 and Apo-2L/TRAI, utilizing a multi-probe RNAse protection assay and estimated by densitometry with GAPDH mRNA as the loading control was determined. […] In contrast to the increase in the DR5 and DR4 mRNA levels, exposure to LAQ824 for eight hours inhibited the mRNA level of c-FLIPL by 75%, as determined by an RT-PCR assay (FIG. 7A). […]

FAS mRNA = assay: Multi-probe RNase protection assay, FAS mRNA; type: cell-based, human; settings: SKW 6.4 and Jurkat cells, 100 nM LAQ824, 8 or 16 hours; densitometry, GAPDH mRNA as loading control
Experimental: as §2, §3, §4

[1] = tested on: HDAC activity in the HeLa cell nuclear extracts; settings: LAQ824 5 to 250 nM, previously reported; cited from earlier work
DR5 mRNA = assay: Multi-probe RNase protection assay, DR5 mRNA; type: cell-based, human; settings: SKW 6.4 and Jurkat cells, 100 nM LAQ824, 8 or 16 hours; densitometry, GAPDH mRNA as loading control
Experimental: as §2, §3, §4

DR5 = assay: Cell-membrane expression of DR5 in primary AML cells, anti-DR5 staining and flow cytometry; type: cell-based, human; settings: primary AML sample, baseline 17.5%
Experimental: FIG. 11 LAQ824 induces histone acetylation, increases DR4 and DR5 levels, as well as down regulates FLIPS and FLIPL in primary AML cells. A. AML cells were treated with LAQ824 at the indicated concentrations for 24 hours. Following this histone protein were isolated, and the Histone H3 acetylation was detected by Western blot analysis using the anti-acetylated Histone H3 antibody. Total cell lysates of the untreated and LAQ824 treated cells were also used for immunoblot analyses of DR5, DR4, FLIPL and FLIPS. β-actin was used as the loading control. B. Bone marrow mononuclear cells from a patient with AML were exposed to 100 or 250 nM of LAQ824 for 24 hours. Following this, cell-membrane expression of DR5 was determined by staining with anti-DR5 antibody and evaluated by flow cytometry. Flow cytometric histograms in panels a to d are from cells treated with: a. Isotype control, b. untreated control cells, c. 100 nM LAQ824 and d. 250 nM LAQ824.
The sensitivity of fresh AML cells procured from patients with relapsed AML to Apo-2L/TRAIL and/or LAQ824-induced apoptosis was next to be determined. […] In every sample evaluated, co-treatment with LAQ824 and Apo-2L/TRAIL induced more apoptosis than treatment with either agent alone. […] Based on the availability adequate sample, we also determined the effect of LAQ824 on the determinants of Apo-2L/TRAIL-induced DISC.

## O=C(/C=C/c1ccc(CN(CCO)CCc2c[nH]c3ccccc23)cc1)NO [LAQ824]
Jurkat cells; 100 or 200 nM LAQ824, 24 hours, data not shown
  apoptosis, % of Jurkat cells: more than 90%
Jurkat cells; Jurkat cells, 10 to 200 nM LAQ824, 24 hours, more than in SKW 6.4
  induction of apoptosis (annexin V positive): induced apoptosis in a dose dependent manner
SKW 6.4 cells
  induction of apoptosis (annexin V positive): induced apoptosis in a dose dependent manner
DR4 mRNA
  increase of DR4 mRNA levels: 2.2 fold
FAS mRNA
  increase of mRNA expression of FAS: 1.5 fold
[1]
  in vitro HDAC activity: inhibits the in vitro HDAC activity in a dose dependent manner
DR5 mRNA
  increase of mRNA expression of DR5: 2.4 fold
DR5; 100 nM LAQ824, 24 hours
  DR5 expression on the cell membrane, % of cells: 33.2%
DR5; 250 nM LAQ824, 24 hours
  DR5 expression on the cell membrane, % of cells: 62.4%

From patent US20070207119A1, “Histone deacetylase inhibitor enhancement of trail-induced apoptosis” (University of South Florida, priority 2002, published 2007)
